Laboratory results reported in patent publication US8907098B2, “Inhibitors of sphingosine kinase” (MERCK PATENT GmbH, priority 2009, dated 2014).

Biological target: modified SphK1 (Homo sapiens, UniProt Q9NYA1)
Test: SphK1 biochemical kinase assay (384-well flashplate)
Conditions: IC50 ranges; 5 nM modified SphK1, 1 μM ATP, 30° C., 120 min; read-out: SphK1 Inhibition IC50
Method: The kinase assay is carried out as a 384-well flashplate assay.
5 nM modified SphK1, 800 nM omega-biotinyl-D-erythro-sphingosine and 1 μM ATP (with 0.3 μCi of ^33P-ATP/well) are incubated in a total volume of 50 μl (25 mM HEPES, 5 mM MgCl2, 1 mM dithiothreitol, 0.01% of Brij35, 0.1% of BSA (fatty acid-free), pH 7.4) without or with test substance (5-10 concentrations) at 30° C. for 120 min. The reaction is terminated using 25 μl of 200 mM EDTA solution, filtered off with suction at room temperature after 30 min, and the cavities are washed 3 times with 100 μl of 0.9% NaCl solution. The non-specific proportion of the kinase reaction (blank) is determined using 0.5 mM NaCl. Radioactivity is measured in topcount. IC50 values are calculated using RS1.

Chain of modified SphK1 (Q9NYA1 whole entry): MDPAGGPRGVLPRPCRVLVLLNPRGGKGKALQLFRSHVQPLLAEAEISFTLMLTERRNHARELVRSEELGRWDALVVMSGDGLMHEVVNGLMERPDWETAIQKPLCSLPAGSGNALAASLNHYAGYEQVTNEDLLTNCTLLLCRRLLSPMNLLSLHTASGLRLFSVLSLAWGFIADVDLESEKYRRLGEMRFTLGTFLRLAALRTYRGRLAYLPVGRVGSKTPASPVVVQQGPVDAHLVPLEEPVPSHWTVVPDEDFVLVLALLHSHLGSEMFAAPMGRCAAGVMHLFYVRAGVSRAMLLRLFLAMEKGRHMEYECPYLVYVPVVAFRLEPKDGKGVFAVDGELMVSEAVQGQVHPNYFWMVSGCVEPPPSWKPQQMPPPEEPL

Structure (SMILES) | IC50 [nM]
CC1(C)CCC(C)(C)c2cc(-c3csc(N4CCC(N(Cc5cc[nH]n5)Cc5cc[nH]n5)CC4)n3)ccc21 [Bis-(1H-pyrazol-3-ylmethyl)-{1-[4-(5,5,8,8-tetramethyl-5,6,7,8-tetrahydronaphthalen-2-yl)thiazol-2-yl]piperidin-4-yl}amine] | 100 to 1000
CN(C)C1CCN(c2nc(-c3ccc4c(c3)C(C)(C)CCC4(C)C)cs2)CC1 [Dimethyl-{1-[4-(5,5,8,8-tetramethyl-5,6,7,8-tetrahydronaphthalen-2-yl)thiazol-2-yl]piperidin-4-yl}amine] | < 100
